The text below walks through data of patent US11236129B2, “IL-17A binding peptides and medical uses thereof” (Dompe' Farmaceutici S.P.A., priority 2018, dated 2022).

Molecules are shown by their SMILES. Residues, ends and D or L forms follow the SMILES beside them.

This assay has as its target IL-17RA/IL17RC dimerization induced by IL-17A (Homo sapiens, UniProt Q16552). As to the kind of experiment: IL-17RA/IL17RC dimerization assay in response to IL-17A (PathHunter Cytokine Receptor Assay). To be noted: IL-17A at EC80; read-out: IC50 in IL-17RA/IL7RC dimerization assay. Type of assay: cell-based. Here is the method: The peptides of Table 7 were tested for their ability to inhibit the binding of IL-17A to its receptor and the subsequent interaction of IL-17RA and IL17RC.
Interleukin receptor RA and RC dimerization assay (DiscoverX) was used to measure the interaction of the receptor chains IL-17RA and IL17RC upon activation by IL-17A in the absence or presence of the peptides of Table 7.
In the PathHunter® Cytokine Receptor Assay, one cytokine receptor chain is tagged with a small peptide epitope ProLink (PK) and the other chain is tagged with Enzyme Acceptor (EA). Ligand binding induces dimerization of the two receptors, facilitating complementation of PK and EA fragments. This interaction generates an active unit of b-galactosidase, which is detected using a chemiluminescent substrate. PathHunter cell lines were expanded from freezer stocks according to standard procedures. Cells were seeded in a total volume of 20 μL into white walled, 384-well microplates and incubated for the appropriate time prior to testing. For agonist activity inhibition, cells were incubated with sample to induce response. Intermediate dilution of sample stocks was performed to generate 5× sample in assay buffer. 5 μL of 5× sample was added to cells and incubated at 37° C. or room temperature for 60 minutes. Vehicle concentration was 1%. 5 μL of 6×EC80 agonist (IL-17A) in assay buffer was added to the cells and incubated at 37° C. for 6 to 16 hours depending on the assay. 1. […] For some assays, activity was detected using a high sensitivity detection reagent (PathHunter Flash Kit) to improve assay performance. In these assays, an equal volume of detection reagent (25 or 30 uL) was added to the wells, followed by a one hour incubation at room temperature. Microplates were read following signal generation with a PerkinElmer Envision™ instrument for chemiluminescent signal detection. Compound activity was analyzed using CBIS data analysis suite (ChemInnovation, CA). % Inhibition=100%×(1−(mean RLU of test sample−mean RLU of vehicle control)/(mean RLU of EC80 control−mean RLU of vehicle control)).

IL-17RA/IL17RC dimerization induced by IL-17A, sequence (Q16552 24-155): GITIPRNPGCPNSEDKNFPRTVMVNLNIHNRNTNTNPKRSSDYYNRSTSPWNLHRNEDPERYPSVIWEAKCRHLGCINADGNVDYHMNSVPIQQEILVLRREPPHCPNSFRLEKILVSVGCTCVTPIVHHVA

In the case of `CC[C@H](C)[C@H](NC(=O)[C@H](CCC(N)=O)NC(=O)[C@@H](NC(=O)[C@H](Cc1c[nH]cn1)NC(=O)[C@@H](NC(C)=O)C(C)C)C(C)C)C(=O)N1CCC[C@H]1C(=O)N[C@@H](C)C(=O)N[C@@H](CC(=O)O)C(=O)N[C@@H](Cc1ccccc1)C(=O)N[C@@H](Cc1c[nH]c2ccccc12)C(=O)N[C@@H](CCC(=O)O)C(=O)N[C@@H](Cc1c[nH]c2ccccc12)C(=O)N[C@@H](Cc1ccccc1)C(=O)N[C@@H](CCCNC(=N)N)C(=O)N[C@@H](CCCNC(=N)N)C(N)=O` [SEQ ID NO: 143] (Ac-VHVQIPADFWEWFRR-NH2), the IC50 is less than 500 nM.

As to `CC(=O)N[C@H](C(=O)N[C@@H](Cc1c[nH]cn1)C(=O)N[C@H](C(=O)N[C@H](C(=O)N[C@@H](Cc1ccccc1)C(=O)N1CCC[C@H]1C(=O)N[C@@H](C)C(=O)N[C@@H](CC(=O)O)C(=O)N[C@@H](CC(C)C)C(=O)N[C@@H](Cc1c[nH]c2ccccc12)C(=O)N[C@@H](CCC(=O)O)C(=O)N[C@@H](Cc1c[nH]c2ccccc12)C(=O)N[C@@H](Cc1ccccc1)C(=O)N[C@@H](CCCNC(=N)N)C(=O)N[C@@H](CCCNC(=N)N)C(N)=O)[C@@H](C)O)C(C)C)C(C)C` [SEQ ID NO: 144] (Ac-VHVTFPADLWEWFRR-NH2), the IC50 is less than 500 nM.

For `CC[C@H](C)[C@H](NC(=O)[C@@H](NC(=O)[C@@H](NC(=O)[C@H](Cc1c[nH]cn1)NC(=O)[C@@H](NC(C)=O)C(C)C)C(C)C)[C@@H](C)O)C(=O)N1CCC[C@H]1C(=O)N[C@@H](CCC(N)=O)C(=O)N[C@@H](CC(=O)O)C(=O)N[C@@H](Cc1ccccc1)C(=O)N[C@@H](Cc1c[nH]c2ccccc12)C(=O)N[C@@H](CCC(=O)O)C(=O)N[C@@H](Cc1c[nH]c2ccccc12)C(=O)N[C@@H](Cc1ccccc1)C(=O)N[C@@H](CCCNC(=N)N)C(=O)N[C@@H](CCCNC(=N)N)C(N)=O` [SEQ ID NO: 145] (Ac-VHVTIPQDFWEWFRR-NH2), the IC50 was less than 500 nM.

Turning to `CC[C@H](C)[C@H](NC(=O)[C@@H](NC(=O)[C@H](Cc1ccccc1)NC(=O)[C@H](Cc1c[nH]cn1)NC(=O)[C@@H](NC(C)=O)C(C)C)[C@@H](C)O)C(=O)N1CCC[C@H]1C(=O)N[C@@H](CCC(N)=O)C(=O)N[C@@H](CC(=O)O)C(=O)N[C@@H](Cc1c[nH]c2ccccc12)C(=O)N[C@@H](Cc1c[nH]c2ccccc12)C(=O)N[C@@H](CCC(=O)O)C(=O)N[C@@H](Cc1c[nH]c2ccccc12)C(=O)N[C@H](C(=O)N[C@@H](CCCNC(=N)N)C(=O)N[C@@H](CCCNC(=N)N)C(N)=O)C(C)C` [SEQ ID NO: 146] (Ac-VHFTIPQDWWEWVRR-NH2), the IC50 was less than 500 nM.

`CC(=O)N[C@H](C(=O)N[C@@H](Cc1c[nH]cn1)C(=O)N[C@@H](Cc1ccccc1)C(=O)N[C@H](C(=O)N[C@@H](Cc1ccccc1)C(=O)N1CCC[C@H]1C(=O)N[C@@H](CCC(N)=O)C(=O)N[C@@H](CC(=O)O)C(=O)N[C@@H](CC(C)C)C(=O)N[C@@H](Cc1ccc(O)cc1)C(=O)N[C@@H](CC(N)=O)C(=O)N[C@@H](Cc1c[nH]c2ccccc12)C(=O)N[C@H](C(=O)N[C@@H](CCCNC(=N)N)C(=O)N[C@@H](CCCNC(=N)N)C(N)=O)C(C)C)[C@@H](C)O)C(C)C` [SEQ ID NO: 147] (Ac-VHFTFPQDLYNWVRR-NH2): the IC50 was less than 500 nM.

For `CC(=O)N[C@H](C(=O)N[C@@H](Cc1c[nH]cn1)C(=O)N[C@@H](Cc1ccccc1)C(=O)N[C@H](C(=O)N[C@@H](Cc1ccccc1)C(=O)N1CCC[C@H]1C(=O)N[C@@H](CCC(N)=O)C(=O)N[C@@H](CC(=O)O)C(=O)N[C@@H](CC(C)C)C(=O)N[C@@H](Cc1ccc(O)cc1)C(=O)N[C@@H](CC(N)=O)C(=O)N[C@@H](Cc1ccccc1)C(=O)N[C@H](C(=O)N[C@@H](CCCNC(=N)N)C(=O)N[C@@H](CCCNC(=N)N)C(N)=O)C(C)C)[C@@H](C)O)C(C)C` [SEQ ID NO: 148] (Ac-VHFTFPQDLYNFVRR-NH2), the IC50 is less than 500 nM.

Regarding `CC[C@H](C)[C@H](NC(=O)[C@@H](NC(=O)[C@@H](NC(=O)[C@H](Cc1c[nH]cn1)NC(=O)[C@@H](NC(C)=O)C(C)C)C(C)C)[C@@H](C)O)C(=O)N1CCC[C@H]1C(=O)N[C@@H](C)C(=O)N[C@@H](CC(=O)O)C(=O)N[C@@H](CC(C)C)C(=O)N[C@@H](Cc1ccc(O)cc1)C(=O)N[C@@H](CC(N)=O)C(=O)N[C@@H](Cc1ccccc1)C(=O)N[C@@H](Cc1ccccc1)C(=O)N[C@@H](CCCNC(=N)N)C(=O)N[C@@H](CCCNC(=N)N)C(N)=O` [SEQ ID NO: 149] (Ac-VHVTIPADLYNFFRR-NH2), the IC50 was less than 500 nM.

In the case of `CC(=O)N[C@H](C(=O)N[C@@H](Cc1c[nH]cn1)C(=O)N[C@@H](Cc1ccccc1)C(=O)N[C@@H](CCC(N)=O)C(=O)N[C@@H](Cc1ccccc1)C(=O)N1CCC[C@H]1C(=O)N[C@@H](CCC(N)=O)C(=O)N[C@@H](CC(=O)O)C(=O)N[C@@H](CC(C)C)C(=O)N[C@@H](Cc1c[nH]c2ccccc12)C(=O)N[C@@H](CCC(=O)O)C(=O)N[C@@H](Cc1c[nH]c2ccccc12)C(=O)N[C@H](C(=O)N[C@@H](CCCNC(=N)N)C(=O)N[C@@H](CCCNC(=N)N)C(N)=O)C(C)C)C(C)C` [SEQ ID NO: 150] (Ac-VHFQFPQDLWEWVRR-NH2), the IC50 was less than 500 nM.

For `CC[C@H](C)[C@H](NC(=O)[C@@H](NC(=O)[C@H](Cc1ccccc1)NC(=O)[C@H](Cc1c[nH]cn1)NC(=O)[C@@H](NC(C)=O)C(C)C)[C@@H](C)O)C(=O)N1CCC[C@H]1C(=O)N[C@@H](CCC(N)=O)C(=O)N[C@@H](CC(=O)O)C(=O)N[C@@H](CC(C)C)C(=O)N[C@@H](Cc1ccc(O)cc1)C(=O)N[C@@H](CC(N)=O)C(=O)N[C@@H](Cc1c[nH]c2ccccc12)C(=O)N[C@@H](CCCNC(=N)N)C(=O)N[C@@H](CCCNC(=N)N)C(N)=O` [SEQ ID NO: 151] (Ac-VHFTIPQDLYNWRR-NH2), the IC50 was less than 500 nM.

In the case of `CC[C@H](C)[C@H](NC(=O)[C@@H](NC(=O)[C@H](Cc1ccccc1)NC(=O)[C@H](Cc1c[nH]cn1)NC(=O)[C@@H](NC(C)=O)C(C)C)[C@@H](C)O)C(=O)N1CCC[C@H]1C(=O)N[C@@H](C)C(=O)N[C@@H](CC(=O)O)C(=O)N[C@@H](CC(C)C)C(=O)N[C@@H](Cc1ccc(O)cc1)C(=O)N[C@@H](CC(N)=O)C(=O)N[C@@H](Cc1ccccc1)C(=O)N[C@H](C(=O)N[C@@H](CCCNC(=N)N)C(=O)N[C@@H](CCCNC(=N)N)C(N)=O)C(C)C` [SEQ ID NO: 152] (Ac-VHFTIPADLYNFVRR-NH2), the IC50 was less than 500 nM.

As to `CC[C@H](C)[C@H](NC(=O)[C@H](CCC(N)=O)NC(=O)[C@H](Cc1ccccc1)NC(=O)[C@H](Cc1c[nH]cn1)NC(=O)[C@@H](NC(C)=O)C(C)C)C(=O)N1CCC[C@H]1C(=O)N[C@@H](CCC(N)=O)C(=O)N[C@@H](CC(=O)O)C(=O)N[C@@H](CC(C)C)C(=O)N[C@@H](Cc1ccc(O)cc1)C(=O)N[C@@H](CC(N)=O)C(=O)N[C@@H](Cc1ccccc1)C(=O)N[C@@H](Cc1ccccc1)C(=O)N[C@@H](CCCNC(=N)N)C(=O)N[C@@H](CCCNC(=N)N)C(N)=O` [SEQ ID NO: 153] (Ac-VHFQIPQDLYNFFRR-NH2), the IC50 is less than 500 nM.

Turning to `CC(=O)N[C@H](C(=O)N[C@@H](Cc1c[nH]cn1)C(=O)N[C@@H](Cc1ccccc1)C(=O)N[C@@H](CCC(N)=O)C(=O)N[C@@H](Cc1ccccc1)C(=O)N1CCC[C@H]1C(=O)N[C@@H](CCC(N)=O)C(=O)N[C@@H](CCC(=O)O)C(=O)N[C@@H](Cc1c[nH]c2ccccc12)C(=O)N[C@@H](Cc1ccc(O)cc1)C(=O)N[C@@H](CC(N)=O)C(=O)N[C@@H](Cc1c[nH]c2ccccc12)C(=O)N[C@@H](Cc1ccccc1)C(=O)N[C@@H](CCCNC(=N)N)C(=O)N[C@@H](CCCNC(=N)N)C(N)=O)C(C)C` [SEQ ID NO: 154] (Ac-VHFQFPQEWYNWFRR-NH2), the IC50 is less than 500 nM.
